Measurements: patent US11851421B2, “Near-infrared cyanine dyes and conjugates thereof” (BRACCO IMAGING S.P.A., priority 2020, dated 2023)

Assays:
[1] = Optical properties: excitation/emission maxima and absolute fluorescence quantum yield; format: physicochemical
Procedure: A dual-beam UV-VIS spectrophotometer (Lambda 40, Perkin Elmer) was used to determine the absorbance (Abs) of the compounds of the invention. Emission/excitation (Em/Ex) spectra and absolute fluorescence quantum yield (ϕ) measurements were carried out on a spectrofluorometer (FluoroLog-3 1IHR-320, Horiba Jobin Yvon) equipped with an F-3018 integrating sphere accessory. The measurements were performed using an excitation wavelength at maximum absorbance of different dyes, and the sample was excited with a 450 W Xenon Light Source. Detection was performed by photomultiplier tubes (PMT-NIR) cooled detector or by TBX-04 detector. Dye solutions were carefully prepared to have an absorbance lower than 0.1 (optical densities) to minimize re-absorption phenomena.
The compounds of the invention have been characterized in terms of their optical properties in vitro in aqueous medium (i.e., water/PBS pH 7.4) and in a clinical chemistry control serum (Seronorm, Sero SA), mimicking the chemical composition and optical properties of human serum. All dye or dye-conjugate solutions were freshly prepared. ICG and S0456 were used as commercial references.
In particular, the excitation and emission maxima and the absolute fluorescence quantum yield (Φ) of representative compounds of formula (I) and conjugates of formula (II) are shown in Table II.

[2] = molecular target: T1, human serum albumin (HSA) (Homo sapiens, UniProt P02768); experiment: Binding affinity to human serum albumin (absorbance peak shift or ultrafiltration method)
T1 construct: purchased Sigma Aldrich A9511
Procedure: An analysis of the binding affinity of the compounds of the invention to human albumin was carried out and the results compared with ICG and […] as a reference. Binding affinity to human serum albumin (HSA; Sigma Aldrich, A9511) was measured using two methods, according to the level of binding affinity of the compounds. The first method, optimal for compounds which strongly interact with HSA, is based on the analysis of the absorbance spectrum peak shift after the incubation of the dye in solutions containing HSA. […] The measure was performed at the maximum absorbance wavelength of the shifted peak. The second method, optimal for compound with low affinity for HSA, is based on measuring the variation of the absorbance of solutions containing the dye and various concentrations of HSA after ultrafiltration. […] In the first method, ΔA/b corresponds to the absorbance measured for each sample, whereas in the second method ΔA/b is obtained subtracting the absorbance of the control sample (dye without HSA) to the absorbance of each other sample.

[3] = molecular target: T2, human recombinant integrin αvβ3 (Homo sapiens, UniProt P05106+P06756); experiment: Receptor binding affinity ELISA (Vitronectin-coated plates); details: duplicate, read-out: Receptor affinity (IC50, nM ± St. Dev.)
T2 construct: purchased R&D Systems
Procedure: Briefly, 96-well ELISA plates were coated overnight at 4° C. with the extracellular matrix (ECM) protein Vitronectin in carbonate buffer (15 mM Na2CO3, 35 mM NaHCO3, pH 9.6). Each well was then washed with PBS-T-buffer (phosphate-buffered saline/Tween20, 137 mM NaCl, 2.7 mM KCl, 10 mM Na2HPO4, 2 mM KH2PO4, 0.01% Tween20, pH 7.4) and blocked for 1 h at RT with TS-B-buffer (Tris-saline/BSA buffer; 20 mM Tris-HCl, 150 mM NaCl, 1 mM CaCl2, 1 mM MgCl2, 1 mM MnCl2, pH 7.5, 1% BSA). In the meantime, a dilution series of the compound and internal standard was prepared in an extra plate. After washing the assay plate three times with PBS-T, 50 μL of the dilution series were transferred to each well. 50 μL of a solution of human recombinant integrin αvβ3 (R&D Systems, 1 μg/mL) in TS-B-buffer was transferred to the wells and incubated for 1 h. The plate was washed three times with PBS-T buffer, and then primary antibody anti-αvβ3 was added to the plate. After incubation and washing three times with PBS-T, the secondary anti-IgG peroxidase-labeled antibody was added to the plate and incubated for 1 h. After washing the plate three times with PBS-T, the plate was developed by quick addition of 3,3′,5,5′-tetrametylbenzidine (TMB) and incubated for 5 min in the dark. The reaction was stopped with 3 M H2SO4, and the absorbance was measured at 450 nm with a plate reader (Victor3, Perkin Elmer).
The IC50 of the representative Compounds 1, 2 and 4 was tested in duplicate, and the resulting inhibition curves were analyzed using GraphPad Prism version 4.0 for Windows (GraphPad Software). The inflection point defines the IC50 value.

[4] = system: WM-266-4 human melanoma cells; experiment: Cell uptake by FACS in presence of human serum; format: cell-based; details: WM-266-4 cells; fluorescence intensity in absence of serum = 100%
Procedure: The human melanoma cell line WM-266-4 (ATCC, CRL-1676) was used as in vitro model to assess the cell uptake of representative integrin-binding Compounds 1, 2 and 4, based on the high expression of the integrin receptors, particularly αvβ3, on the membrane of these cells (Capasso et al., PlosOne 2014).
Adherent cells at about 70% confluence were incubated with the Compounds 1 or 3 (1 μM) for 2 h at 37° C. (5% CO2) in presence of Dulbecco's Modified Eagle's Medium (DMEM) supplemented with 10% FBS, 2 mM glutamine, 100 IU/mL penicillin and 100 μg/mL streptomycin. […] Fluorescence Activated Cell Sorting (FACS) was used to detect the fluorescence signal within the cells, as measure of cell uptake. Samples were excited with an Argon laser and the emission detected using a 670 nm longpass filter. Values of fluorescence intensity were obtained from the histogram statistic produced by the instrument software.
The residual internalization was calculated by considering the value of fluorescence intensity in absence of the competitor as 100%.
Furthermore, to assess the effect of biological fluids on the cell uptake, parallel experiments were performed incubating the cells with a compounds of the invention in presence of human serum from male AB plasma (Sigma Aldrich, H4522). The residual internalization was calculated by considering the value of fluorescence intensity in absence of the serum as 100%. […]

[5] = system: human glioblastoma U87MG cells; experiment: Tumor uptake in animal model of human glioblastoma (subcutaneous), ex vivo optical imaging; details: ex vivo tumor-to-muscle, 24 h after i.v. administration, glioblastoma tumor bearing mice, n = 5/group
Procedure: Tumor uptake experiments were carried out in an animal model of human glioblastoma (subcutanous) overexpressing the integrin receptors, particularly αvβ3. Briefly, human glioblastoma U87MG cells (ATCC, HTB-14) were cultured in Eagle's Minimum Essential Medium (EMEM) supplemented with 10% Fetal Bovine Serum (FBS), 2 mM glutamine, 100 IU/mL penicillin, 100 μg/mL streptomycin. Male Balb/c nu/nu mice, 4-6 weeks of age (Charles River Laboratories), underwent subcutaneous implantation (right flank) of about 10 million cells suspended in 0.1 mL of EMEM. Mice were housed 4 per cage with food and water ad libitum. Animals were fed with VRF1 (P) sterile diet (Special Diets Services Ltd) up to the end of the acclimation period (5 days). Then, AIN-76a rodent diet irradiated (Research Diets), a special diet that reduces auto-fluorescence, was used up to the end of the experiments. Tumor growth was monitored by longitudinal assessments using a caliper up to the target size of 300-600 mm^3 (3-4 weeks after cell implantation). […] Regions of interest (ROIs) were drawn on the excised tumor and healthy muscle tissues to evaluate signal intensity (expressed as Average Radiant Efficiency). The ratio between the fluorescence signal in the tumor and in the muscle (background tissue) was then calculated to assess the contrast.

[6] = Seronorm (clinical chemistry control serum)

T1 sequence (P02768 25-609): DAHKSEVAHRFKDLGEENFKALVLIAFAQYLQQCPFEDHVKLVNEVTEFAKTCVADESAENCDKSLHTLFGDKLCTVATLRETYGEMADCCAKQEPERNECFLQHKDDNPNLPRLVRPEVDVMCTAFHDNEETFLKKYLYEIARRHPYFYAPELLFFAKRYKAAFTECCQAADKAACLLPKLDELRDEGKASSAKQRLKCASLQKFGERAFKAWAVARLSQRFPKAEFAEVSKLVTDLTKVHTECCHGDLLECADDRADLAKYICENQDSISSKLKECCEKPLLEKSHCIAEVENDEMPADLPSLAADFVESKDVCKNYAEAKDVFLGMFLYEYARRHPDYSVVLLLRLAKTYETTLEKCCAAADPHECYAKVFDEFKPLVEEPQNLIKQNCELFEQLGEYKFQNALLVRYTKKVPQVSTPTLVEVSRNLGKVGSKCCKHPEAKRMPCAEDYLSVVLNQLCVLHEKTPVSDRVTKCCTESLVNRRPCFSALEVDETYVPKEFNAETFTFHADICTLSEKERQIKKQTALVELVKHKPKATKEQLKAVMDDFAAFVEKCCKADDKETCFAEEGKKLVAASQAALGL
T2 sequence (P06756 31-992 limits assumed): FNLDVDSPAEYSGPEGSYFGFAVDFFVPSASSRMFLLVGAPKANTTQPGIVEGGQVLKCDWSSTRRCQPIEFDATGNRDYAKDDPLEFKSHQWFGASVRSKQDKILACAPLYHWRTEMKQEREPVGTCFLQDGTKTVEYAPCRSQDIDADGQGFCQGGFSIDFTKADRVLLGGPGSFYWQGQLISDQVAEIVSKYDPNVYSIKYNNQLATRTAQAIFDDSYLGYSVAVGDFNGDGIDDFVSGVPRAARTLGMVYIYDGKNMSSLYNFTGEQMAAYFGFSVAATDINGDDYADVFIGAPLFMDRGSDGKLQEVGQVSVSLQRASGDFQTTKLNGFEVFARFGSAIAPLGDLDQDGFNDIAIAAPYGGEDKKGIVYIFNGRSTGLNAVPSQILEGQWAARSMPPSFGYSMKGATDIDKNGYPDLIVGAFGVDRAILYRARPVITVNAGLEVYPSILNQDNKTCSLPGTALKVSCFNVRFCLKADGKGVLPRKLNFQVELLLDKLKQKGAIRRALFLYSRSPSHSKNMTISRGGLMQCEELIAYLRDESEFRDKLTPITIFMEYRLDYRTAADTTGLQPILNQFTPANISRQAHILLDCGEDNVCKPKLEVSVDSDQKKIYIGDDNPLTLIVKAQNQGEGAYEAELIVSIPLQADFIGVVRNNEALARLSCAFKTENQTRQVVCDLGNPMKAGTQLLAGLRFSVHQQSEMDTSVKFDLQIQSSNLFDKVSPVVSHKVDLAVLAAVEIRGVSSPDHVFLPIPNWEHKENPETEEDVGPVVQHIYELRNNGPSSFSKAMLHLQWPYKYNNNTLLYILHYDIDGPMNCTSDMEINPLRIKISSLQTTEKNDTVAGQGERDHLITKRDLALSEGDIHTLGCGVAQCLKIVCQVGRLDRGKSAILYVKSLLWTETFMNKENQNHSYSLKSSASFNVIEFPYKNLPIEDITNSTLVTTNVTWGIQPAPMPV
T2 sequence (P05106 27-718 limits assumed): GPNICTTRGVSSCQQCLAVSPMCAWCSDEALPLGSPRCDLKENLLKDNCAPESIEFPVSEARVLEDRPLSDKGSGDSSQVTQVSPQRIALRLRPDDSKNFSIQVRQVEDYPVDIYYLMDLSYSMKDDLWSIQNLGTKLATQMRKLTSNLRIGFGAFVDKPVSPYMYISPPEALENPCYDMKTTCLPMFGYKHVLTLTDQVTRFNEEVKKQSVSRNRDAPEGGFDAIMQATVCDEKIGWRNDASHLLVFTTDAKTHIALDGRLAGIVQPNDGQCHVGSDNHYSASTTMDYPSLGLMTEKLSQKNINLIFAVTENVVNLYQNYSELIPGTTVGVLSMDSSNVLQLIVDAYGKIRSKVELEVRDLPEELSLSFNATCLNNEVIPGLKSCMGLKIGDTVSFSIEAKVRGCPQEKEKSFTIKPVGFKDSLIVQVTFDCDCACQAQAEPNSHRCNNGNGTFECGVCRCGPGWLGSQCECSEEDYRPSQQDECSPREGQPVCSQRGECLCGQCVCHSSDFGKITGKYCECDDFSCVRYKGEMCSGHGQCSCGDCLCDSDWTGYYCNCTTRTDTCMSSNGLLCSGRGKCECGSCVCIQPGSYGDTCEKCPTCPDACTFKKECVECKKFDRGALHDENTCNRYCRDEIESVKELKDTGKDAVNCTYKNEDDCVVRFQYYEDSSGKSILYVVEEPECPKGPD

Structure (SMILES): CC1(C)C(/C=C/C2=C(c3ccccc3)C(=C/C=C3\N(CCCCCC(=O)NCCCCC4NC(=O)[C@@H](Cc5ccccc5)NC(=O)[C@H](CC(=O)O)NC(=O)CNC(=O)[C@H](CCCNC(=N)N)NC4=O)c4ccc(C(=O)NCC(O)C(O)C(O)C(O)CO)cc4C3(C)C)/CCC2)=[N+](CCCCS(=O)(=O)[O-])c2ccc(C(=O)NCC(O)C(O)C(O)C(O)CO)cc21 (stereo partly drawn) [Compound 3]
- Max Em (emission maximum) ([1]; PBS pH 7.4): 787 nm
- Max Ex (excitation maximum) ([1]; PBS pH 7.4): 771 nm
- Φ (absolute fluorescence quantum yield) ([1]; PBS pH 7.4): 6.4%
- Φ (absolute fluorescence quantum yield) [1, 6]: 8.1%

Structure (SMILES): CC1(C)C(/C=C/C2=C(Oc3ccccc3)C(=C/C=C3/N(CCCCCC(=O)NCCCCC4NC(=O)[C@@H](Cc5ccccc5)NC(=O)[C@H](CC(=O)O)NC(=O)CNC(=O)[C@H](CCCNC(=N)N)NC4=O)c4ccc(C(=O)NCC(O)C(O)C(O)C(O)CO)cc4C3(C)C)/CCC2)=[N+](CCCCS(=O)(=O)[O-])c2ccc(C(=O)NCC(O)C(O)C(O)C(O)CO)cc21 (stereo partly drawn) [Compound 4]
- Max Em (emission maximum) ([1]; PBS pH 7.4): 803 nm
- Max Ex (excitation maximum) ([1]; PBS pH 7.4): 781 nm
- Φ (absolute fluorescence quantum yield) ([1]; PBS pH 7.4): 5.0%
- Φ (absolute fluorescence quantum yield) [1, 6]: 9.9%
- Kd [2]: 100 µM
- IC50 [3]: 1.84 ± 0.38 nM
- Residual cell uptake in presence of human serum [4]: 85%
- Tumor-to-background ratio (mean ± St. Dev) [5]: 7.64 ± 0.86

Structure (SMILES): CC1(C)C(/C=C/C2=C(c3ccc(CCC(=O)O)cc3)C(=C/C=C3/N(CCCCS(=O)(=O)O)c4ccc(C(=O)NCC(O)C(O)C(O)C(O)CO)cc4C3(C)C)/CCC2)=[N+](CCCCS(=O)(=O)[O-])c2ccc(C(=O)NCC(O)C(O)C(O)C(O)CO)cc21 (stereo not drawn) [Compound 11]
- Max Em (emission maximum) ([1]; PBS pH 7.4): 786 nm
- Max Ex (excitation maximum) ([1]; PBS pH 7.4): 764 nm
- Φ (absolute fluorescence quantum yield) ([1]; PBS pH 7.4): 6.3%
- Φ (absolute fluorescence quantum yield) [1, 6]: 11.5%
- Kd [2]: 154 µM

Structure (SMILES): CC1(C)C(/C=C/C2=C(Oc3ccc(S(=O)(=O)O)cc3)C(=C/C=C3/N(CCCCCC(=O)O)c4ccc(C(=O)NCC(O)C(O)C(O)C(O)CO)cc4C3(C)C)/CCC2)=[N+](CCCCS(=O)(=O)[O-])c2ccc(C(=O)NCC(O)C(O)C(O)C(O)CO)cc21 (stereo not drawn) [Compound 15]
- Kd [2]: 11 µM

Structure (SMILES): CC1(C)C(/C=C/C2=C(c3ccccc3)C(=C/C=C3/N(CCCCS(=O)(=O)O)c4ccc(C(=O)NCC(O)C(O)C(O)C(O)CO)cc4C3(C)C)/CCC2)=[N+](CCCCS(=O)(=O)[O-])c2ccc(C(=O)NCC(O)C(O)C(O)C(O)CO)cc21 (stereo not drawn) [Compound 17]
- Max Em (emission maximum) ([1]; PBS pH 7.4): 788 nm
- Max Ex (excitation maximum) ([1]; PBS pH 7.4): 768 nm
- Φ (absolute fluorescence quantum yield) ([1]; PBS pH 7.4): 5.5%
- Φ (absolute fluorescence quantum yield) [1, 6]: 11.8%
- Kd [2]: 81.6 µM

Structure (SMILES): CC1(C)C(/C=C/C2=C(Oc3ccccc3)C(=C/C=C3/N(CCCCS(=O)(=O)O)c4ccc(C(=O)NCC(O)CO)cc4C3(C)C)/CCC2)=[N+](CCCCS(=O)(=O)[O-])c2ccc(C(=O)NCC(O)CO)cc21 (stereo not drawn) [Compound 18]
- Max Em (emission maximum) ([1]; PBS pH 7.4): 804 nm
- Max Ex (excitation maximum) ([1]; PBS pH 7.4): 781 nm
- Φ (absolute fluorescence quantum yield) ([1]; PBS pH 7.4): 6.2%
- Φ (absolute fluorescence quantum yield) [1, 6]: 10.5%
- Kd [2]: 68.5 µM

Structure (SMILES): CC1(C)C(/C=C/C2=C(Oc3ccccc3)C(=C/C=C3/N(CCCCS(=O)(=O)O)c4ccc(C(=O)NC(CO)CO)cc4C3(C)C)/CCC2)=[N+](CCCCS(=O)(=O)[O-])c2ccc(C(=O)NC(CO)CO)cc21 [Compound 19]
- Max Em (emission maximum) ([1]; PBS pH 7.4): 805 nm
- Max Ex (excitation maximum) ([1]; PBS pH 7.4): 783 nm
- Φ (absolute fluorescence quantum yield) ([1]; PBS pH 7.4): 6.5%
- Φ (absolute fluorescence quantum yield) [1, 6]: 10.9%
- Kd [2]: 35.3 µM

Structure (SMILES): CC1(C)C(/C=C/C2=C(Oc3ccccc3)C(=C/C=C3/N(CCCCS(=O)(=O)O)c4ccc(C(=O)NC5C(O)C(O)C(O)C(O)C5O)cc4C3(C)C)/CCC2)=[N+](CCCCS(=O)(=O)[O-])c2ccc(C(=O)NC3C(O)C(O)C(O)C(O)C3O)cc21 (stereo not drawn) [Compound 20]
- Max Em (emission maximum) ([1]; PBS pH 7.4): 801 nm
- Max Ex (excitation maximum) ([1]; PBS pH 7.4): 780 nm
- Φ (absolute fluorescence quantum yield) ([1]; PBS pH 7.4): 6.3%
- Φ (absolute fluorescence quantum yield) [1, 6]: 7.7%
- Kd [2]: 72.5 µM

Structure (SMILES): CC1(C)C(/C=C/C2=C(c3ccccc3)C(=C/C=C3/N(CCCCS(=O)(=O)O)c4ccc(C(=O)NC(CO)(CO)CO)cc4C3(C)C)/CCC2)=[N+](CCCCS(=O)(=O)[O-])c2ccc(C(=O)NC(CO)(CO)CO)cc21 [Compound 21]
- Max Em (emission maximum) ([1]; PBS pH 7.4): 790 nm
- Max Ex (excitation maximum) ([1]; PBS pH 7.4): 769 nm
- Φ (absolute fluorescence quantum yield) ([1]; PBS pH 7.4): 5.6%
- Φ (absolute fluorescence quantum yield) [1, 6]: 12.8%
- Kd [2]: 30.9 µM

Structure (SMILES): CC1(C)C(/C=C/C2=C(c3ccccc3)C(=C/C=C3/N(CCCCC(=O)O)c4ccc(C(=O)NCC(O)C(O)C(O)C(O)CO)cc4C3(C)C)/CCC2)=[N+](CCCCS(=O)(=O)[O-])c2ccc(C(=O)NCC(O)C(O)C(O)C(O)CO)cc21 (stereo not drawn) [Compound 22]
- Max Em (emission maximum) ([1]; PBS pH 7.4): 803 nm
- Max Ex (excitation maximum) ([1]; PBS pH 7.4): 782 nm
- Φ (absolute fluorescence quantum yield) ([1]; PBS pH 7.4): 6.1%
- Φ (absolute fluorescence quantum yield) [1, 6]: 9.8%
- Kd [2]: 120 µM

Structure (SMILES): CC1(C)C(/C=C/C2=C(Cl)C(=C/C=C3/N(CCCCS(=O)(=O)[O-])c4ccc(S(=O)(=O)[O-])cc4C3(C)C)/CCC2)=[N+](CCCCS(=O)(=O)[O-])c2ccc(S(=O)(=O)[O-])cc21.[Na+].[Na+].[Na+] [Compound S0456, reference compound]
- Max Em (emission maximum) ([1]; PBS pH 7.4): 803 nm
- Max Ex (excitation maximum) ([1]; PBS pH 7.4): 782 nm
- Φ (absolute fluorescence quantum yield) ([1]; PBS pH 7.4): 3.9%
- Φ (absolute fluorescence quantum yield) [1, 6]: 7.7%
- HSA affinity (KA) [2]: 350,000 M^−1

Structure (SMILES): CC1(C)C(/C=C/C=C/C=C/C=C2\N(CCCCS(=O)(=O)O)c3ccc4ccccc4c3C2(C)C)=[N+](CCCCS(=O)(=O)[O-])c2ccc3ccccc3c21 [ICG, Indocyanine green, reference compound]
- Max Em (emission maximum) ([1]; PBS pH 7.4): 810 nm
- Max Ex (excitation maximum) ([1]; PBS pH 7.4): 780 nm
- Φ (absolute fluorescence quantum yield) ([1]; PBS pH 7.4): 1.5%
- Φ (absolute fluorescence quantum yield) [1, 6]: 7.8%
